Measured values taken from US20240335451A1, “ACRYLAMIDE DERIVATIVES USEFUL AS ANTI-INFLAMMATORY AGENTS” (Sitryx Therapeutics Limited, priority 2021, published 2024).

How the values were obtained:
Assay type in all cases: cell-based
[1] = tested on: IL-1β cytokine output from THP-1s; assay: THP-1 AlphaLISA IL-1β cytokine assay (differentiated THP-1 cells, LPS then nigericin); settings: Homo sapiens, 30 min pre-incubation, LPS 24 hr, nigericin 1 hour
Experimental: (§1) Measuring Inhibitory Effects on IL-1β and IL-6 Cytokine Output from THP-1s
(§2) The cytokine inhibition profiles of compounds of formula (I) were determined in a differentiated THP-1 cell assay. All assays were performed in RPMI-1640 growth medium (Gibco), supplemented with 10% fetal bovine serum (FBS; Gibco), 1% penicillin-streptomycin and 1% sodium pyruvate unless specified otherwise. The IL-1β and IL-6 cytokine inhibition assays were each run in a background of differentiated THP-1 cells as described below. All reagents described were from Sigma-Aldrich unless specified otherwise. Compounds were prepared as 10 mM DMSO stocks.
(§3) THP-1 cells were expanded as a suspension up to 80% confluence in appropriate growth medium. Cells were harvested, suspended, and treated with an appropriate concentration of phorbol 12-myristate 13-acetate (PMA) over a 72 hr period (37° C./5% CO2).
(§4) Following 72 hrs of THP-1 cell incubation, cellular medium was removed and replaced with fresh growth media containing 1% of FBS. Working concentrations of compounds were prepared separately in 10% FBS treated growth medium and pre-incubated with the cells for 30 minutes (37° C./5% CO2). Following the 30 minute compound pre-incubation, THP-1s were treated with an appropriate concentration of LPS and the THP-1s were subsequently incubated for a 24 hr period (37° C./5% CO2). An appropriate final concentration of Nigericin was then dispensed into the THP-1 plates and incubated for 1 hour (37° C./5% CO2) before THP-1 supernatants were harvested and collected in separate polypropylene 96-well holding plates.
(§5) Reagents from each of the IL-1β and IL-6 commercial kits (Perkin Elmer) were prepared and run according to the manufacturer's instructions. Subsequently, fluorescence signal detection in a microplate reader was measured (EnVision® Multilabel Reader, Perkin Elmer).
(§6) Percentage inhibition was calculated per cytokine by normalizing the sample data to the high and low controls used within each plate (+/−LPS respectively).

[2] = tested on: NRF2 (nuclear factor erythroid 2-related factor 2); assay: NRF2 activation assay (DiscoverX PathHunter NRF2 translocation kit, U2OS cells); settings: Homo sapiens; for Emax: U2OS, normalised to dimethyl fumarate high control; for EC50: U2OS PathHunter cells, 6 hours
[3] = tested on: IL-6 cytokine output from THP-1s; assay: THP-1 AlphaLISA IL-6 cytokine assay (differentiated THP-1 cells, LPS then nigericin); settings: Homo sapiens, 30 min pre-incubation, LPS 24 hr, nigericin 1 hour
Experimental: as §1, §2, §3, §4, §5, §6

[4] = +GSH (30 minute compound/GSH pre-incubation)

Compound | IC50 [1] [µM] | EC50 [2, 4] [µM] | EC50 ([2]; −GSH) [µM] | IC50 [3] [µM] | Emax ([2]; +GSH) [%] | Emax ([2]; −GSH) [%]
C=C(CC(=O)OC1(c2cc(Cl)cc(Cl)c2)CCC1)C(N)=O [Example 20, 1-(3,5-dichlorophenyl)cyclobutyl 3-carbamoylbut-3-enoate] | 13.2 | > 100 | 35.2 | 8.3 | 28 | 156
C=C(CC(=O)OC1(c2ccc(C(F)(F)F)c(F)c2)CCC1)C(=O)NC [Example 22, 1-(3-fluoro-4-(trifluoromethyl)phenyl)cyclobutyl 3-(methylcarbamoyl)but-3-enoate] | 11 | > 100 | 14.5 | 9.4 | 48 | 109
C=C(CC(=O)OC)C(=O)OC [dimethyl itaconate, reference compound] | > 100 |  |  | > 100 |  | 126

Now those with a lower IC50 [1], led by results:

IC50 [1] [µM] | EC50 [2, 4] [µM] | EC50 ([2]; −GSH) [µM] | IC50 [3] [µM] | Compound | Emax ([2]; +GSH) [%] | Emax ([2]; −GSH) [%]
9.5 | > 100 | > 100 | > 100 | C=C(Cc1nc(C2(c3ccc(SC(F)(F)F)cc3)CC2)no1)C(=O)NCC(=O)O [Example 27, (2-((3-(1-(4-((trifluoromethyl)thio)phenyl)cyclopropyl)-1,2,4-oxadiazol-5-yl)methyl)acryloyl)glycine] | 20 | 26
7.9 | > 100 | 31.8 | 16.2 | C=C(Cc1nc(C2(c3ccc(SC(F)(F)F)cc3)CC2)no1)C(=O)NC(C(=O)O)C(F)(F)F (stereo not drawn) [Example 28, 3,3,3-trifluoro-2-(2-((3-(1-(4-((trifluoromethyl)thio)phenyl)cyclopropyl)-1,2,4-oxadiazol-5-yl)methyl)acrylamido)propanoic acid] | 34 | 67
